Results on one compound are retold here after patent publication EP4076478B1, “COMPOSITION AND METHOD FOR THE TREATMENT OF TYPE I DIABETES” (Vector Vitale IP LLC, priority 2019, dated 2021).

The data set can be described thus: Accumulation of metals in liver and kidney tissues after intraperitoneal administration. Format: in vivo, rats. Conditions: day 1 and day 7 after discontinuation of the substances.

On to `CC(=O)[O-].CC(=O)[O-].[Zn+2]` [Zn acetate, Zn(CH3COO)2], for which the “zinc in the kidney and liver tissues” value is recorded as “significantly increased”.
